The values that follow come from US20220362215A1, “THERAPEUTIC OR PROPHYLACTIC AGENT FOR CHRONIC KIDNEY DISEASE CONTAINING PYRAZOLE-AMIDE COMPOUND” (JAPAN TOBACCO INC., priority 2018, published 2022).

Each structure is given as a SMILES string.

Experiment [1] deals with saline-loaded SDT-fatty rats; 5/6 nephrectomized rats. Put plainly: disease model animals exhibiting CKD-like renal disorder and decreased renal function (saline-loaded SDT-fatty rat model; 5/6 nephrectomized rat model). The format is in vivo. Particulars: oral administration in feed. The procedure:
Experimental Example 1: Suppressive effects of compound A on urinary protein excretion and renal disorder by oral administration of monohydrate of compound A in saline-loaded SDT-fatty rat model
In saline-loaded Spontaneously Diabetic Torii fatty (SDI-fatty) rats, suppressive effects of compound A on urinary protein excretion and renal disorder were evaluated. The evaluation was performed by reference to non-patent document 1. As the experiment animal, 6-week-old male SDI-fatty rats (CLEA Japan, Inc.) were used. A normal powder feed (CRF-1 powder, Oriental Yeast. Co., ltd.) containing 0.005 w/w % of a monohydrate of compound A as a free form of compound A was prepared. […]
For urine, after measuring the urine volume, the protein concentration in the urine was measured by the absorbance at wavelength 590 nm using a total protein quantification kit (TONEIN-TP, Otsuka Pharmaceutical Co., Ltd.). Amount of the urinary protein excretion (mg/6 hours) was calculated from the urine volume and protein concentration. […]
The mean and standard deviation of urinary protein excretion for each group were calculated, and the results thereof are shown in FIG. 1. […]
In 5/6 nephrectomized rats, suppressive effects of compound A on urinary protein excretion and renal disorder were evaluated. […]

The test system of experiment [2] is pyruvate dehydrogenase kinase (PDHK). The following applies: as described in patent document 1 (WO 2014/142290); cited from earlier work.

In the case of `CC(C)(O)CCOc1cc(-c2cnn(C(C)(C)C(N)=O)c2)c2c(c1)[C@@](O)(C(F)(F)F)c1ccccc1-2` [compound A, 2-{4-[(9R)-9-hydroxy-2-(3-hydroxy-3-methylbutyloxy)-9-(trifluoromethyl)-9H-fluoren-4-yl]-1H-pyrazol-1-yl}-2-methylpropanamide], the “severity of the disease” value in experiment [1] was “significantly reduces the severity of the disease”. The “pyruvate dehydrogenase kinase (PDHK) inhibitory activity” value in experiment [2] is given as “inhibitory activity”.
